# Test results published in US11051515B2, “3-acyl-benzamides and their use as herbicides” (Bayer Aktiengesellschaft, priority 2017, dated 2021).
# Key:
# [1] = system: ALOMY; test: Pre-emergence action against ALOMY; assay type: in vivo, Alopecurus myosuroides; details: for pest or weed control at 320 g/ha: Alopecurus myosuroides, 504 h, dosage 320 g/ha, pre-emergence, scored visually after 3 weeks vs untreated controls, 100% = plants have died, 0% = like control plants, read-out: Pre-emergence action against ALOMY (herbicidal activity in percent); for Herbicidal efficacy against ALOMY: 80 g of a.i./ha
# Procedure, shortened: (§1)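 Seeds sown in sandy loam in wood-fiber pots and covered with soil. Greenhouse growth; visual damage scored after 3 weeks versus untreated controls (100% = dead, 0% = like control).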
# [2] = system: AVEFA; test: Pre-emergence action against AVEFA; assay type: in vivo, Avena fatua; details: Avena fatua, 504 h, dosage 320 g/ha, scored visually after 3 weeks vs untreated controls, read-out: Pre-emergence action against AVEFA (herbicidal activity)
# Procedure, shortened: as §1
# [3] = system: ECHCG; test: Pre-emergence action against ECHCG; assay type: in vivo, Echinochloa crus-galli; details: for pest or weed control at 320 g/ha: Echinochloa crus-galli, 504 h, pre-emergence, dosage 320 g/ha, scored visually after 3 weeks vs untreated controls, read-out: Pre-emergence action against ECHCG (herbicidal activity)
# Procedure, shortened: as §1
# [4] = system: SETVI; test: Pre-emergence action against SETVI; assay type: in vivo, Setaria viridis; details: for pest or weed control at 320 g/ha: Setaria viridis, 504 h, pre-emergence, dosage 320 g/ha, scored visually after 3 weeks vs untreated controls, read-out: SETVI (Table B8, pre-emergence herbicidal activity)
# Procedure, shortened: as §1
# [5] = system: ABUTH; test: Pre-emergence action against ABUTH; assay type: in vivo, Abutilon theophrasti; details: for pest or weed control at 320 g/ha: Abutilon theophrasti, 504 h, pre-emergence, dosage 320 g/ha, scored visually after 3 weeks vs untreated controls, read-out: Pre-emergence action against ABUTH (herbicidal activity)
# Procedure, shortened: as §1
# [6] = system: AMARE; test: Pre-emergence action against AMARE; assay type: in vivo, Amaranthus retroflexus; details: for pest or weed control at 320 g/ha: Amaranthus retroflexus, 504 h, pre-emergence, dosage 320 g/ha, scored visually after 3 weeks vs untreated controls, read-out: Pre-emergence action against AMARE (herbicidal activity)
# Procedure, shortened: as §1
# [7] = system: MATIN; test: Pre-emergence action against MATIN; assay type: in vivo, Matricaria inodora; details: for pest or weed control at 320 g/ha: Tripleurospermum inodorum, 504 h, Dosage 320 g/ha, pre-emergence
# Procedure, shortened: as §1
# [8] = system: PHBPU; test: Pre-emergence action against PHBPU; assay type: in vivo, Pharbitis purpurea; details: for pest or weed control at 320 g/ha: Ipomoea purpurea, 504 h, Dosage 320 g/ha, pre-emergence
# Procedure, shortened: as §1
# [9] = system: POLCO; test: Pre-emergence action against POLCO; assay type: in vivo, Polygonum convolvulus; details: for Herbicidal efficacy against POLCO: 80 g of a.i./ha; for pest or weed control at 320 g/ha: Fallopia convolvulus, 504 h, Dosage 320 g/ha, pre-emergence
# Procedure, shortened: as §1
# [10] = system: VIOTR; test: Pre-emergence action against VIOTR; assay type: in vivo, Viola tricolor; details: for pest or weed control at 320 g/ha: Viola tricolor, 504 h, Dosage 320 g/ha, pre-emergence
# Procedure, shortened: as §1
# [11] = system: ALOMY; test: Post-emergence action against ALOMY; assay type: in vivo, Alopecurus myosuroides; details: for pest or weed control at 80 g/ha: Alopecurus myosuroides, 504 h, Dosage 80 g/ha, post-emergence
# Procedure, shortened: (§2)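 Post-emergence foliar spray on greenhouse plants at the one-leaf stage, using wettable-powder or emulsion-concentrate formulations in water (600 to […], plus 0.2% wetting agent). Damage scored by eye roughly 3 weeks later against untreated plants: 0% = like control, 100% = dead.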
# [12] = system: AVEFA; test: Post-emergence action against AVEFA; assay type: in vivo, Avena fatua; details: for pest or weed control at 80 g/ha: Avena fatua, 504 h, post-emergence, dosage 80 g/ha, visual assessment about 3 weeks after treatment vs untreated controls, read-out: Post-emergence action against AVEFA (herbicidal action in percent)
# Procedure, shortened: as §2
# [13] = system: CYPES; test: Post-emergence action against CYPES; assay type: in vivo, Cyperus esculentus; details: for pest or weed control at 80 g/ha: Cyperus esculentus, 504 h, post-emergence, dosage 80 g/ha, visual assessment about 3 weeks after treatment vs untreated controls, read-out: Post-emergence action against CYPES (herbicidal action in percent)
# Procedure, shortened: as §2
# [14] = system: ECHCG; test: Post-emergence action against ECHCG; assay type: in vivo, Echinochloa crus-galli; details: for pest or weed control at 80 g/ha: Echinochloa crus-galli, 504 h, post-emergence, dosage 80 g/ha, visual assessment about 3 weeks after treatment vs untreated controls, read-out: Post-emergence action against ECHCG (herbicidal action in percent); for Herbicidal efficacy against ECHCG: Table V16, post-emergence
# Procedure, shortened: as §2
# [15] = system: ABUTH; test: Post-emergence action against ABUTH; assay type: in vivo, Abutilon theophrasti; details: Abutilon theophrasti, 504 h; post-emergence, dosage 80 g/ha, visual assessment about 3 weeks after treatment vs untreated controls; read-out: Post-emergence action against ABUTH (herbicidal action in percent)
# Procedure, shortened: as §2
# [16] = system: MATIN; test: Post-emergence action against MATIN; assay type: in vivo, Matricaria inodora; details: for pest or weed control at 80 g/ha: Tripleurospermum inodorum, 504 h, post-emergence, dosage 80 g/ha, visual assessment about 3 weeks after treatment vs untreated controls, read-out: Post-emergence action against MATIN (herbicidal action in percent)
# Procedure, shortened: as §2
# [17] = system: STEME; test: Post-emergence action against STEME; assay type: in vivo, Stellaria media; details: for pest or weed control at 80 g/ha: Stellaria media, 504 h, post-emergence, dosage 80 g/ha
# Procedure, shortened: as §2
# [18] = system: VERPE; test: Post-emergence action against VERPE; assay type: in vivo, Veronica persica; details: Veronica persica, 504 h, dosage 80 g/ha
# Procedure, shortened: as §2
# [19] = system: VERPE; test: Pre-emergence action against VERPE; assay type: in vivo, Veronica persica; details: for pest or weed control at 320 g/ha: Veronica persica, 504 h, Dosage 320 g/ha, pre-emergence
# Procedure, shortened: as §1
# [20] = Table V9, pre-emergence, 80 g of a.i./ha
# [21] = Table V7, pre-emergence, 20 g of a.i./ha
# [22] = Table V18, post-emergence, 20 g of a.i./ha
# [23] = Table V3, pre-emergence, 80 g of a.i./ha
# [24] = Table V4, pre-emergence, 20 g of a.i./ha
Structure (SMILES),pest or weed control at 320 g/ha [1] [%],pest or weed control at 320 g/ha [2] [%],pest or weed control at 320 g/ha [3] [%],pest or weed control at 320 g/ha [4] [%],pest or weed control at 320 g/ha [5] [%],pest or weed control at 320 g/ha [6] [%],pest or weed control at 320 g/ha [7] [%],pest or weed control at 320 g/ha [10] [%],pest or weed control at 80 g/ha [11] [%],pest or weed control at 80 g/ha [12] [%],pest or weed control at 80 g/ha [13] [%],pest or weed control at 80 g/ha [14] [%],pest or weed control at 80 g/ha [15] [%],pest or weed control at 80 g/ha [16] [%],pest or weed control at 80 g/ha [17] [%],pest or weed control at 80 g/ha [18] [%],pest or weed control at 320 g/ha [8] [%],pest or weed control at 320 g/ha [9] [%],pest or weed control at 320 g/ha [19] [%],other results
Cc1c(C(=O)Nc2nnnn2C)ccc(S(C)(=O)=O)c1C(=O)C1CC1 [1-9],90,80,100,100,100,100,100,100,100,100,80,90,90,100,100,100,,,,"Herbicidal efficacy against SETVI [4, 20]: 100; Herbicidal efficacy against ABUTH [5, 21]: 100; Herbicidal efficacy against MATIN [7, 21]: 90; Herbicidal efficacy against PHBPU ([8]; Table V6, pre-emergence, 80 g of a.i./ha): 60; Herbicidal efficacy against POLCO ([9]; Table V6, pre-emergence): 40; Herbicidal efficacy against VIOTR [10, 21]: 70; Herbicidal efficacy against VIOTR [10, 20]: 100; Herbicidal efficacy against ALOMY [11, 22]: 80; Herbicidal efficacy against AVEFA [12, 22]: 80; Herbicidal efficacy against CYPES [13, 22]: 70; Herbicidal efficacy against MATIN ([16]; Table V17, post-emergence, 5 g of a.i./ha): 100; Herbicidal efficacy against MATIN [16, 22]: 100; Herbicidal efficacy against STEME [17, 22]: 100"
CCCC(=O)c1c(C(F)(F)F)ccc(C(=O)Nc2nnnn2C)c1C [1-16],90,90,100,100,100,100,100,100,90,90,,90,100,100,100,90,90,80,100,
COc1c(C(=O)Nc2nnnn2C)ccc(C(F)(F)F)c1C(=O)C1CC1 [1-50],100,100,100,100,100,100,100,100,80,100,80,90,100,100,100,100,100,90,100,
CC(=O)c1c(S(C)(=O)=O)ccc(C(=O)Nc2nnnn2C)c1Cl [1-127],100,90,100,90,100,100,100,100,,80,80,100,90,100,90,100,90,90,100,"Herbicidal efficacy against ALOMY ([1]; Table V1, pre-emergence): 80; Herbicidal efficacy against ALOMY ([1]; Table V3, pre-emergence): 80; Herbicidal efficacy against ECHCG [3, 23]: 100; Herbicidal efficacy against ABUTH [5, 23]: 100; Herbicidal efficacy against ABUTH [5, 24]: 90; Herbicidal efficacy against AMARE [6, 23]: 100; Herbicidal efficacy against MATIN [7, 23]: 90; Herbicidal efficacy against MATIN [7, 24]: 70; Herbicidal efficacy against POLCO ([9]; Table V1, pre-emergence): 70; Herbicidal efficacy against VIOTR ([10]; Table V1, pre-emergence, 80 g of a.i./ha): 100; Herbicidal efficacy against VIOTR [10, 23]: 100; Herbicidal efficacy against VERPE [19, 24]: 90; Herbicidal efficacy against ECHCG ([14]; 5 g of a.i./ha): 100; Herbicidal efficacy against ECHCG ([14]; 20 g of a.i./ha): 100; Herbicidal efficacy against MATIN ([16]; Table V14, post-emergence, 5 g of a.i./ha): 90; Herbicidal efficacy against MATIN ([16]; Table V16, post-emergence, 5 g of a.i./ha): 90; Herbicidal efficacy against MATIN ([16]; Table V16, post-emergence, 20 g of a.i./ha): 100"
CCC(=O)c1c(C(F)F)ccc(C(=O)Nc2nnnn2C)c1Cl [1-165],100,100,100,100,100,100,100,100,90,90,,90,90,90,100,90,100,90,100,
CC(=O)c1c(I)ccc(C(=O)Nc2nnnn2C)c1Cl [1-192],100,100,100,100,100,100,100,100,80,80,80,100,100,100,,,100,80,,
Cn1nnnc1NC(=O)c1ccc(C(F)(F)F)c(C(=O)C2CC2)c1C1CC1 [1-233],100,100,100,100,100,100,100,100,90,90,,100,100,90,90,100,100,80,100,
